Source: patent publication US10351566B2, “Therapeutic compounds for pain and synthesis thereof” (priority 2015, dated 2019)
pIC50: −log10 of the molar value. Where two headings read alike, the source gives them in different places.

Experiments:
CYP3A4 = CYP3A4 (Homo sapiens, UniProt P08684); experiment: Reversible CYP450 inhibition, cocktail format; format: biochemical; settings: preliminary
Procedure: (§1) Preliminary in vitro studies on reversible inhibition of major CYP450 enzymes were conducted in a cocktail format for this compound. The IC50 values were 4 μM for CYP2C9, 5 μM for CYP2C19, and greater than 10 μM for CYP3A4, 2C8, 2D6, and 1A2. If total plasma concentrations in humans are less than 0.4 μM, then in vivo drug interaction studies in clinical trials may not be required for this compound.

CYP2D6 = CYP2D6 (Homo sapiens, UniProt P10635); experiment: Reversible CYP450 inhibition, cocktail format; format: biochemical; settings: 2D6, reversible inhibition, preliminary
Procedure: as §1

CYP2C9 = CYP2C9 (Homo sapiens, UniProt P11712); experiment: Reversible CYP450 inhibition, cocktail format; format: biochemical; settings: preliminary
Procedure: as §1

CYP1A2 = biological target: T1, CYP1A2 (Homo sapiens, UniProt P05177); experiment: Reversible CYP450 inhibition, cocktail format; format: biochemical; settings: 1A2, reversible inhibition, preliminary
T1 sequence (P05177 1-516): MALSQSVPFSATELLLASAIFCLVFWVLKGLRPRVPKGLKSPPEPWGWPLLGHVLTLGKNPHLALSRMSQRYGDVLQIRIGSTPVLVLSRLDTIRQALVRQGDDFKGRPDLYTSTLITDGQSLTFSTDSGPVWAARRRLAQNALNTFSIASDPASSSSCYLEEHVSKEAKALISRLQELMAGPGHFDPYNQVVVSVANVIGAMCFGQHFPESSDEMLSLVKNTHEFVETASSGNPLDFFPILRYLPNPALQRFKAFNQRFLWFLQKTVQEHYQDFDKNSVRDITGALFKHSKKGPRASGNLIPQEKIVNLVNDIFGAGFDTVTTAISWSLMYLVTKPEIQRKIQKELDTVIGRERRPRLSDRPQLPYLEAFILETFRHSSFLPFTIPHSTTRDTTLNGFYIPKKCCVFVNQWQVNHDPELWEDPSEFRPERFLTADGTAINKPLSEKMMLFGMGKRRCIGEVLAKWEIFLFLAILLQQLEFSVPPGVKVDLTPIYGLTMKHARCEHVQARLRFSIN
Procedure: as §1

CYP2C19 = CYP2C19 (Homo sapiens, UniProt P33261); experiment: Reversible CYP450 inhibition, cocktail format; format: biochemical; settings: preliminary
Procedure: as §1

[1] = format: in vivo, mice; settings: Brain, SC, Mean
in vivo = experiment: in vivo; design: species or system mice; settings: for HL_Lambda_z / Cl_F_obs / Vz_F_obs / AUC(0-t) / Cmax / Tmax / AUC(0-inf): Mean; for Kp / AUC(0-t) / Cmax / Tmax / AUC(0-inf): mouse, in vivo; for Kp: po, 50 mg/kg, mice, oral 50 mg/kg, 5 min to 8 h; for AUC(0-inf): read-out: AUCINF_obs
Procedure: Tissue distribution studies were conducted by administration of the compound to mice at a dose of 50 mg/kg orally and intravenously. Plasma and tissue samples were collected at various times from 5 min to 8 h. The tissue-to-plasma concentration ratios measured after oral dosing were: 0.6 (range: 0.3-1.1, brain), 3.2 (range: 1.9-5.0, spinal cord), 6.5 (range: 0.9-10.3, liver), 24.0 (range: 5.1-59.9, lung), 6.6 (range: 1.2-14.9, heart), 16.9 (range: 4.3-26.8, kidney), 77.5 (range: 11.5-341, spleen), 29.2 (range: 6.3-50.2, cecum), 67.4 (range: 11.6-326, colon), 5.2 (range: 2.1-8.0, testes). The concentration-time profiles of the compound in these tissues generally followed those in plasma. The tissue-to-plasma concentration ratios in these selected tissues are generally within the normal ranges of the marketed drugs.
There are complex equilibria between the compound concentrations in blood, CSF and spinal cord. A high concentration in the CSF would yield a large concentration in the spinal cord. Since Formula 1 is a Pgp substrate and highly tissue-bound, its higher concentrations in the spinal cord tissue compared to the brain tissue are not surprising (Table 2).

mouse plasma = format: in vitro ADME
Procedure: (§2) Formula 1 was stable in both mouse and human plasma, with t90 values greater than 4 h, whereas it was unstable in rat plasma, with a t90 of less than 1 h (t90 should be greater than 4 h in order to be considered stable). Most of the efficacy and safety pharmacology was therefore run in mice.

human plasma = format: in vitro ADME
Procedure: as §2

[2] = format: in vitro ADME; settings: rat plasma
Procedure: as §2

[3] = tested on: CCI-induced neuropathic pain; experiment: CCI-induced neuropathic pain in the rat, oral; format: in vivo; settings: CCI rats
Procedure: Study plan in brief: SD male rats were operated as described by Bennet and Xie7. On study day 7, the sensitivity of the animals to von Frey was assessed. […] The animals were then dosed with either vehicle, gabapentin or Formula 1. Treatment with Formula 1 was not effective 2 h post-single dose.

[4] = Brain, second block of the table, route not given
[5] = Plasma, second block of the table, route not given
[6] = Spinal Cord, second block of the table, route not given

CYP3A4, sequence (P08684 whole entry): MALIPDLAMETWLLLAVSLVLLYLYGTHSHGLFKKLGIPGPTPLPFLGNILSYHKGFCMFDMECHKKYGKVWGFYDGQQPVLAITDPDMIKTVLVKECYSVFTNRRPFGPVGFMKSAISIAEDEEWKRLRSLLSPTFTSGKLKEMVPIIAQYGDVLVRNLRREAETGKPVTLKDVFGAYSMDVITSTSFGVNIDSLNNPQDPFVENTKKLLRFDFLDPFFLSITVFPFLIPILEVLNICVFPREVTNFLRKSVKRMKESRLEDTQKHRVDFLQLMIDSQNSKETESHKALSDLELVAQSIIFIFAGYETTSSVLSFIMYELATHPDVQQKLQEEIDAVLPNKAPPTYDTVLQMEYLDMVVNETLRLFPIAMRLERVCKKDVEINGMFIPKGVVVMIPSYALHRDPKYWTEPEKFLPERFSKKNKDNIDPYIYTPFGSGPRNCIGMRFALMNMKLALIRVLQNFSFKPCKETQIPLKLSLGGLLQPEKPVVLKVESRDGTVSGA
CYP2D6, sequence (P10635 whole entry): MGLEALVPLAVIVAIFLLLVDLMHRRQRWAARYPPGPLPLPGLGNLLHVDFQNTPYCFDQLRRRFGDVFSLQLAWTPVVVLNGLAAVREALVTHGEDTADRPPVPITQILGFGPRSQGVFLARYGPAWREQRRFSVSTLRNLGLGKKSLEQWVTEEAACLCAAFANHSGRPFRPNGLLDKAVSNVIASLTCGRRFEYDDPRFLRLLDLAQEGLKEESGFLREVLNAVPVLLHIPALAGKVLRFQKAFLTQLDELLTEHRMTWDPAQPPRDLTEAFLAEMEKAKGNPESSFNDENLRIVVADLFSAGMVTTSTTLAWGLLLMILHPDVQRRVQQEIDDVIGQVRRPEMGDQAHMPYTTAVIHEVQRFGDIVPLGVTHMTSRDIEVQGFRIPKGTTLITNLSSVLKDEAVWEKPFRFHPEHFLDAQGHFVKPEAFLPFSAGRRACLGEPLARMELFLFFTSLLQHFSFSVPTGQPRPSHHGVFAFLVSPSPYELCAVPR
CYP2C9, sequence (P11712 whole entry): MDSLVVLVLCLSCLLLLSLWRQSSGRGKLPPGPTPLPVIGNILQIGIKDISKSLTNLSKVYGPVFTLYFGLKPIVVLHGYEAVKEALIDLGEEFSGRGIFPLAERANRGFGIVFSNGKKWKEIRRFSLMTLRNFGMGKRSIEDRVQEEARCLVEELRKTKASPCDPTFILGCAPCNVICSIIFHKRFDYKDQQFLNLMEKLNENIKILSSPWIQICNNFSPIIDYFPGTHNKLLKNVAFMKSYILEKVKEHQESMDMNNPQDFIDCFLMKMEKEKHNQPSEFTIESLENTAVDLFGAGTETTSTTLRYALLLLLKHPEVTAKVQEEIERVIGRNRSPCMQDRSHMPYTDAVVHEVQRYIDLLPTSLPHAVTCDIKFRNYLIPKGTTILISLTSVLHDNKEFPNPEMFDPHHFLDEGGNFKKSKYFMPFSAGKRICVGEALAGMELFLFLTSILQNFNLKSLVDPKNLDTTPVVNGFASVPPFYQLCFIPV
CYP2C19, sequence (P33261 whole entry): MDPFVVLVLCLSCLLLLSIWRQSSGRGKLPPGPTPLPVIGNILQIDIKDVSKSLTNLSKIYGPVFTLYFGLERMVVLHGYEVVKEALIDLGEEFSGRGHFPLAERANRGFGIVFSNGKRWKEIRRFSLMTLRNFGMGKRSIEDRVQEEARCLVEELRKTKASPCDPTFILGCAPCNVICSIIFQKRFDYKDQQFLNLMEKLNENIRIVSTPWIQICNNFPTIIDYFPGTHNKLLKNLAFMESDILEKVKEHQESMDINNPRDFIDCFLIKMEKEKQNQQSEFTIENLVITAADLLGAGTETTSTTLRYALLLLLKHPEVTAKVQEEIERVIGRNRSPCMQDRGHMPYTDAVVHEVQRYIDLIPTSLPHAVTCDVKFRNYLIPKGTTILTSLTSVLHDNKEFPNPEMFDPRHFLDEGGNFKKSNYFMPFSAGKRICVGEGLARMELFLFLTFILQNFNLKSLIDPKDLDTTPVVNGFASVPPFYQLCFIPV

With `CC(C)(C)C(=O)O[C@@H]1[C@@H]2[C@H]3C[C@H](C[C@@H]1N3Cc1ccccn1)CN2C(=O)CC(F)(F)F` (relative stereo) [Formula 1, (2S*,3S*,3aS*,6R*,7aR*)-1-(pyridin-2-ylmethyl)-4-(3,3,3-trifluoropropanoyl)octahydro-1H-2,6-methanopyrrolo[3,2-b]pyridin-3-yl pivalate] as the compound, how does the pIC50 (CYP3A4) read?
The pIC50 was less than 5.00.

What about the pIC50 (CYP2D6) of the same compound?
Its pIC50 is less than 5.00.

And the pIC50 (CYP2C9)?
Its pIC50 is 5.40.

And the pIC50 (CYP1A2)?
Its pIC50 is less than 5.00.

What about the pIC50 (CYP2C19) of the same compound?
Its pIC50 is 5.30.

And the HL_Lambda_z [1]?
Its HL_Lambda_z is 0.39 h.

What about the HL_Lambda_z (in vivo; [4]) of the same compound?
The HL_Lambda_z was 0.74 h.

What about the Cl_F_obs (in vivo; Plasma, SC) of the same compound?
The Cl_F_obs was 120.292 mL/min/kg.

And the HL_Lambda_z (in vivo; Plasma, SC)?
The HL_Lambda_z was 0.37 h.

What about the Vz_F_obs (in vivo; Plasma, SC) of the same compound?
The Vz_F_obs was 3.84783 L/kg.

What about the Cl_F_obs (in vivo; [5]) of the same compound?
The Cl_F_obs was 672.2167 mL/min/kg.

What about the HL_Lambda_z (in vivo; [5]) of the same compound?
Its HL_Lambda_z is 1.20 h.

And the Vz_F_obs (in vivo; [5])?
The Vz_F_obs was 72.1615 L/kg.

What about the HL_Lambda_z (in vivo; Spinal Cord, SC) of the same compound?
The HL_Lambda_z was 0.53 h.

What about the HL_Lambda_z (in vivo; [6]) of the same compound?
The HL_Lambda_z was 1.56 h.

And the Kp (in vivo; male, read-out: tissue-to-plasma concentration ratio, testes)?
Its Kp is 5.2.

And the Kp (in vivo; male, read-out: tissue-to-plasma concentration ratio, testes, range)?
Its Kp is 2.1 to 8.

And the AUC(0-t) (in vivo; [4])?
The AUC(0-t) was 2770 ng·h/mL.

And the Cmax (in vivo; [4])?
The Cmax was 6750 ng/mL.

What about the Tmax (in vivo; [4]) of the same compound?
The Tmax was 4.8 min.

What about the AUC(0-t) (in vivo; [5]) of the same compound?
Its AUC(0-t) is 2590 ng·h/mL.

And the Cmax (in vivo; [5])?
Its Cmax is 3080 ng/mL.

What about the AUC(0-inf) (in vivo; [5]) of the same compound?
Its AUC(0-inf) is 2610 ng·h/mL.

And the AUC(0-t) (in vivo; [6])?
Its AUC(0-t) is 15500 ng·h/mL.

What about the Cmax (in vivo; [6]) of the same compound?
Its Cmax is 30000 ng/mL.

And the Kp (in vivo; read-out: tissue-to-plasma concentration ratio, brain)?
The Kp was 0.6.

What about the Kp (in vivo; read-out: tissue-to-plasma concentration ratio, brain, range) of the same compound?
Its Kp is 0.3 to 1.1.

And the Kp (in vivo; read-out: tissue-to-plasma concentration ratio, cecum)?
Its Kp is 29.2.

And the Kp (in vivo; read-out: tissue-to-plasma concentration ratio, cecum, range)?
Its Kp is 6.3 to 50.2.

And the Kp (in vivo; read-out: tissue-to-plasma concentration ratio, colon)?
Its Kp is 67.4.

What about the Kp (in vivo; read-out: tissue-to-plasma concentration ratio, colon, range) of the same compound?
The Kp was 11.6 to 326.

What about the Kp (in vivo; read-out: tissue-to-plasma concentration ratio, heart) of the same compound?
The Kp was 6.6.

And the Kp (in vivo; read-out: tissue-to-plasma concentration ratio, heart, range)?
The Kp was 1.2 to 14.9.

What about the Kp (in vivo; read-out: tissue-to-plasma concentration ratio, kidney) of the same compound?
Its Kp is 16.9.

And the Kp (in vivo; read-out: tissue-to-plasma concentration ratio, kidney, range)?
Its Kp is 4.3 to 26.8.

What about the Kp (in vivo; read-out: tissue-to-plasma concentration ratio, liver) of the same compound?
Its Kp is 6.5.

What about the Kp (in vivo; read-out: tissue-to-plasma concentration ratio, liver, range) of the same compound?
The Kp was 0.9 to 10.3.

What about the Kp (in vivo; read-out: tissue-to-plasma concentration ratio, lung) of the same compound?
Its Kp is 24.

And the Kp (in vivo; read-out: tissue-to-plasma concentration ratio, lung, range)?
Its Kp is 5.1 to 59.9.

And the Kp (in vivo; read-out: tissue-to-plasma concentration ratio, spinal cord)?
Its Kp is 3.2.

And the Kp (in vivo; read-out: tissue-to-plasma concentration ratio, spinal cord, range)?
The Kp was 1.9 to 5.

What about the Kp (in vivo; read-out: tissue-to-plasma concentration ratio, spleen) of the same compound?
Its Kp is 77.5.

And the Kp (in vivo; read-out: tissue-to-plasma concentration ratio, spleen, range)?
The Kp was 11.5 to 341.

What about the AUC(0-t) (in vivo; sc, Brain) of the same compound?
The AUC(0-t) was 790 ng·h/mL.

And the Cmax (in vivo; sc, Brain)?
Its Cmax is 1380 ng/mL.

And the AUC(0-t) (in vivo; sc, Plasma)?
The AUC(0-t) was 1380 ng·h/mL.

And the Cmax (in vivo; sc, Plasma)?
Its Cmax is 1900 ng/mL.

What about the AUC(0-t) (in vivo; sc, Spinal Cord) of the same compound?
The AUC(0-t) was 6210 ng·h/mL.

What about the Cmax (in vivo; sc, Spinal Cord) of the same compound?
Its Cmax is 11900 ng/mL.

And the Tmax (in vivo; Plasma, SC)?
Its Tmax is 15 min.

What about the AUC(0-inf) (in vivo; Plasma, SC) of the same compound?
Its AUC(0-inf) is 1390 ng·h/mL.

And the t90 (mouse plasma)?
Its t90 is “greater than 4 h”.

What about the t90 (human plasma) of the same compound?
The t90 was “greater than 4 h”.

What about the t90 [2] of the same compound?
The t90 was “less than 1 h”.

And the “change of activity on continuous dosing” value [3]?
The value was “increase in compound activity”.

And the “withdrawal force (von Frey)” value ([3]; 2 h post-single dose)?
Its value is “not effective”.

What about the withdrawal threshold ([3]; daily oral 50 mg/kg, study day 11, 2 h post-treatment) of the same compound?
Its withdrawal threshold is “significant increase in the withdrawal threshold”.
